pIC50: −log10 of the molar value.
Assays:
[1] = biological target: T1, human orexin-1 receptor (Homo sapiens, UniProt O43613); test: FLIPR intracellular calcium assay, orexin receptor antagonistic activity (OX1); assay type: cell-based; settings: CHO cells expressing human orexin-1 receptor; 3 nM orexin-A; normalized to on-plate reference; *n = geometric mean from n values
T1 construct: expressed in transfected cells; host or cells: CHO (Chinese hamster ovary) cells, kept under G418
T1 sequence (O43613 1-425): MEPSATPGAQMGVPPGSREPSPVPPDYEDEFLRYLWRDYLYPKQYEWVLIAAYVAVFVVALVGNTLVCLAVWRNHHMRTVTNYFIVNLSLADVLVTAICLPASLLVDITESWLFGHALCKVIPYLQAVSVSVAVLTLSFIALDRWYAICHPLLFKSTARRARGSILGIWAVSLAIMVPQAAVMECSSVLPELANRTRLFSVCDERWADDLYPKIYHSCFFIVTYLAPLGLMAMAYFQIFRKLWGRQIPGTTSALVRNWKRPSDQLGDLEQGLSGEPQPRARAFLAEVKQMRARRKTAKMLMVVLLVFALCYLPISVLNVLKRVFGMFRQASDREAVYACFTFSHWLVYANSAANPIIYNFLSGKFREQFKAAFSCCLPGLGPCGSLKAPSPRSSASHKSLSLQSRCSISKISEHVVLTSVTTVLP
Method: (§1) The orexin receptor antagonistic activity of the compounds of formula (I) is determined in accordance with the following experimental method.
(§2) Chinese hamster ovary (CHO) cells expressing the human orexin-1 receptor and the human orexin-2 receptor, respectively, are grown in culture medium (Ham F-12 with L-Glutamine) containing 300 μg/ml G418, 100 U/ml penicillin, 100 μg/ml streptomycin and 10% heat inactivated fetal calf serum (FCS). The cells are seeded at 20′000 cells/well into 384-well black clear bottom sterile plates (Greiner). The seeded plates are incubated overnight at 37° C. in 5% CO2.
(§3) Human orexin-A as an agonist is prepared as 1 mM stock solution in MeOH:water (1:1), diluted in HBSS containing 0.1% bovine serum albumin (BSA), NaHCO3: 0.375 g/l and 20 mM HEPES for use in the assay at a final concentration of 3 nM.
(§4) Antagonists are prepared as 10 mM stock solution in DMSO, then diluted in 384-well plates using DMSO followed by a transfer of the dilutions into in HBSS containing 0.1% bovine serum albumin (BSA), NaHCO3: 0.375 g/l and 20 mM HEPES. On the day of the assay, 50 μl of staining buffer (HBSS containing 1% FCS, 20 mM HEPES, NaHCO3: 0.375 g/l, 5 mM probenecid (Sigma) and 3 μM of the fluorescent calcium indicator fluo-4 AM (1 mM stock solution in DMSO, containing 10% pluronic) is added to each well. The 384-well cell-plates are incubated for 50 min at 37° C. in 5% CO2 followed by equilibration at rt for 30-120 min before measurement.
(§5) Within the Fluorescent Imaging Plate Reader (FLIPR Tetra, Molecular Devices), antagonists are added to the plate in a volume of 10 μl/well, incubated for 10 min and finally 10 μl/well of agonist is added. Fluorescence is measured for each well at 1 second intervals, and the height of each fluorescence peak is compared to the height of the fluorescence peak induced by 3 nM orexin-A with vehicle in place of antagonist. For each antagonist, the IC50 value (the concentration of compound needed to inhibit 50% of the agonistic response) is determined and normalized using the obtained IC50 value of a on-plate reference compound. Optimized conditions were achieved by adjustment of pipetting speed and cell splitting regime. The calculated IC50 values of the compounds may fluctuate depending on the daily cellular assay performance. Fluctuations of this kind are known to those skilled in the art.

[2] = biological target: T2, human orexin-2 receptor (Homo sapiens, UniProt O43614); test: FLIPR intracellular calcium assay, orexin receptor antagonistic activity (OX2); assay type: cell-based; settings: CHO cells expressing human orexin-2 receptor; 3 nM orexin-A; normalized to on-plate reference; *n = geometric mean from n values
T2 construct: expressed in transfected cells; host or cells: CHO (Chinese hamster ovary) cells, kept under G418
T2 sequence (O43614 1-444): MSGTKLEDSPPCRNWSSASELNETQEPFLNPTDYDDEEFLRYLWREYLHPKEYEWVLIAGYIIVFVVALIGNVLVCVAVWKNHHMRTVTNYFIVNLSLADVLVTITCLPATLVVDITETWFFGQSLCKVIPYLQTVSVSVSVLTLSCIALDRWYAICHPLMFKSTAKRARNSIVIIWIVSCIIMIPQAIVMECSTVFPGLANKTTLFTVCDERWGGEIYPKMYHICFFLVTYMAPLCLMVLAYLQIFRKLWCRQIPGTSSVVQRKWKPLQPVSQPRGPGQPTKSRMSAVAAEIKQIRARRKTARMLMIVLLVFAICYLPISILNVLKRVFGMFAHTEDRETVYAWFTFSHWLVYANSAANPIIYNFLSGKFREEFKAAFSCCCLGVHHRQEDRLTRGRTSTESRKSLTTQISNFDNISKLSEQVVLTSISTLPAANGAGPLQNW
Method: as §1, §2, §3, §4, §5

pIC50 [1] | pIC50 [2] | Compound
6.49 | 7.41 | CCOc1ccc(CN2C(=O)CSC2c2c(OC)ccc3c2OCCO3)cc1 (stereo not drawn) [Example 9, 3-(4-Ethoxy-benzyl)-2-(6-methoxy-2,3-dihydro-benzo[1,4]dioxin-5-yl)-thiazolidin-4-one]
6.77 | 7.80 | COc1cccc(OC)c1C1SCC(=O)N1Cc1ccc(OC(C)C)cc1 (stereo not drawn) [Example 5, 2-(2,6-Dimethoxy-phenyl)-3-(4-isopropoxy-benzyl)-thiazolidin-4-one]
6.07 | 7.32 | CCOc1ccc(CN2C(=O)CSC2c2c(OC)cccc2OCC)cc1 (stereo not drawn) [Example 15, 3-(4-Ethoxy-benzyl)-2-(2-ethoxy-6-methoxy-phenyl)-thiazolidin-4-one]
6.42 | 7.57 | COc1cccc(OC)c1C1SCC(=O)N1Cc1ccc(OC(F)F)cc1 (stereo not drawn) [Example 4, 3-(4-Difluoromethoxy-benzyl)-2-(2,6-dimethoxy-phenyl)-thiazolidin-4-one]
5.63 | 7.72 | COc1ccc2c(C)noc2c1C1SCC(=O)N1Cc1ccc(OC(F)(F)F)cc1 (stereo not drawn) [Example 22, 2-(6-Methoxy-3-methyl-benzo[d]isoxazol-7-yl)-3-(4-trifluoromethoxy-benzyl)-thiazolidin-4-one]
6.84 | 7.80 | COc1ccc2c(c1C1SCC(=O)N1Cc1ccc(OC(F)(F)F)cc1)OCCO2 (stereo not drawn) [Example 10, 2-(6-Methoxy-2,3-dihydro-benzo[1,4]dioxin-5-yl)-3-(4-trifluoromethoxy-benzyl)-thiazolidin-4-one]
5.76 | 6.92 | COc1cccc(OC)c1C1SCC(=O)N1Cc1ccc(Oc2ccc(C)nn2)cc1 (stereo not drawn) [Example 280, 2-(2,6-Dimethoxy-phenyl)-3-[4-(6-methyl-pyridazin-3-yloxy)-benzyl]-thiazolidin-4-one]
6.45 | 6.35 | COc1cccc(OC)c1C1SC(C)C(=O)N1Cc1ccc2ccccc2n1 (stereo not drawn) [Example 30, 2-(2,6-Dimethoxy-phenyl)-5-methyl-3-quinolin-2-ylmethyl-thiazolidin-4-one]
6.68 | 7.80 | COc1cncc(OC)c1C1SCC(=O)N1Cc1ccc(OC(F)(F)F)cc1 (stereo not drawn) [Example 28, 2-(3,5-Dimethoxy-pyridin-4-yl)-3-(4-trifluoromethoxy-benzyl)-thiazolidin-4-one]
6.36 | 7.52 | COc1cccc(OC)c1C1SCC(=O)N1Cc1ccc(SC(F)(F)F)cc1 (stereo not drawn) [Example 139, 2-(2,6-Dimethoxy-phenyl)-3-(4-trifluoromethylsulfanyl-benzyl)thiazolidin-4-one]
6.84 | 7.82 | COc1cccc(OC)c1C1SCC(=O)N1Cc1ccc(OC(F)(F)F)cc1 (stereo not drawn) [Example 2, 2-(2,6-Dimethoxy-phenyl)-3-(4-trifluoromethoxy-benzyl)-thiazolidin-4-one]
6.74 | 7.80 | COc1cccc(OC)c1C1N(Cc2ccc(OC(C)C)cc2)C(=O)CS1(=O)=O (stereo not drawn) [Example 289, 2-(2,6-Dimethoxy-phenyl)-3-(4-isopropoxy-benzyl)-1,1-dioxo-thiazolidin-4-one]
5.80 | 6.92 | COc1cccc(OC)c1C1SCC(=O)N1Cc1ccc(Oc2cncnc2)cc1 (stereo not drawn) [Example 276, 2-(2,6-Dimethoxy-phenyl)-3-[4-(pyrimidin-5-yloxy)-benzyl]-thiazolidin-4-one]
6.44 | 7.82 | COc1cccc(OC)c1C1SC(C)C(=O)N1Cc1ccc(OC(F)(F)F)cc1 (stereo not drawn) [Example 17, 2-(2,6-Dimethoxy-phenyl)-5-methyl-3-(4-trifluoromethoxy-benzyl)-thiazolidin-4-one]
6.25 | 7.80 | COc1ccnc(OC)c1C1SCC(=O)N1Cc1ccc(OC(F)(F)F)cc1 (stereo not drawn) [Example 25, 2-(2,4-Dimethoxy-pyridin-3-yl)-3-(4-trifluoromethoxy-benzyl)-thiazolidin-4-one]
6.51 | 7.96 | COc1ccc2c(c1C1SCC(=O)N1Cc1ccc(OC(F)(F)F)cc1)OCO2 (stereo not drawn) [Example 12, 2-(5-Methoxy-benzo[1,3]dioxol-4-yl)-3-(4-trifluoromethoxy-benzyl)-thiazolidin-4-one]
6.46 | 8.15 | COc1cccc(OC)c1C1SCC(=O)N1Cc1ccc(Oc2cc(C)ccn2)cc1 (stereo not drawn) [Example 284, 2-(2,6-Dimethoxy-phenyl)-3-[4-(4-methyl-pyridin-2-yloxy)-benzyl]-thiazolidin-4-one]
7.96 | 7.52 | COc1ccc2cc(CN3C(=O)C(C)SC3c3c(OC)cccc3OC)ccc2c1 (stereo not drawn) [Example 31, 2-(2,6-Dimethoxy-phenyl)-3-(6-methoxy-naphthalen-2-ylmethyl)-5-methyl-thiazolidin-4-one]
5.85 | 7.49 | COc1cccc(OC)c1C1SCC(=O)N1Cc1ccc(Oc2cnccn2)cc1 (stereo not drawn) [Example 279, 2-(2,6-Dimethoxy-phenyl)-3-[4-(pyrazin-2-yloxy)-benzyl]-thiazolidin-4-one]
6.77 | 6.89 | COc1cc(C)cc(OC)c1C1SC(C)C(=O)N1Cc1ccc(OC(F)(F)F)cc1 (stereo not drawn) [Example 35, 2-(2,6-Dimethoxy-4-methyl-phenyl)-5-methyl-3-(4-trifluoromethoxy-benzyl)-thiazolidin-4-one]
6.11 | 6.94 | CCOc1ccccc1C1SCC(=O)N1Cc1ccc2c(c1)OCCO2 (stereo not drawn) [Example 72, 3-(2,3-Dihydro-benzo[1,4]dioxin-6-ylmethyl)-2-(2-ethoxy-phenyl)-thiazolidin-4-one]
5.71 | 6.90 | COc1cccc(Oc2ccc(CN3C(=O)CSC3c3c(OC)cccc3OC)cc2)n1 (stereo not drawn) [Example 282, 2-(2,6-Dimethoxy-phenyl)-3-[4-(6-methoxy-pyridin-2-yloxy)-benzyl]-thiazolidin-4-one]
6.39 | 8.10 | COc1cccc(OC)c1C1SCC(=O)N1Cc1ccc(Oc2ccccn2)cc1 (stereo not drawn) [Example 277, 2-(2,6-Dimethoxy-phenyl)-3-[4-(pyridin-2-yloxy)-benzyl]-thiazolidin-4-one]
6.34 | 7.62 | CCOc1cccc(OC)c1C1SCC(=O)N1Cc1ccc(OC(F)(F)F)cc1 (stereo not drawn) [Example 16, 2-(2-Ethoxy-6-methoxy-phenyl)-3-(4-trifluoromethoxy-benzyl)-thiazolidin-4-one]
6.81 | 7.74 | COc1cccc(OC)c1C1SCC(=O)N1Cc1ccc2ccccc2n1 (stereo not drawn) [Example 27, 2-(2,6-Dimethoxy-phenyl)-3-quinolin-2-ylmethyl-thiazolidin-4-one]
6.97 | 7.55 | COc1cc(C)cc(OC)c1C1SCC(=O)N1Cc1ccc(OC(F)(F)F)cc1 (stereo not drawn) [Example 34, 2-(2,6-Dimethoxy-4-methyl-phenyl)-3-(4-trifluoromethoxy-benzyl)-thiazolidin-4-one]

Compound | pIC50 [1] | pIC50 [2]
2-[2-(2-Hydroxy-ethoxy)-6-methoxy-phenyl]-3-(4-trifluoromethoxy-benzyl)-thiazolidin-4-one [Example 268] | 5.74 | 7.35

Source: patent publication US20120088759A1, “THIAZOLIDIN-4-ONE AND [1,3]-THIAZINAN-4-ONE COMPOUNDS AS OREXIN RECEPTOR ANTAGONISTS” (priority 2009, published 2012)
